Laboratory results as given in ChEMBL document CHEMBL3046334 (Med Chem Res, 2012).

These compounds were tested against T1, Prostaglandin G/H synthase 2 (Homo sapiens, UniProt P35354) (assay: Inhibition of COX2 in Homo sapiens (human) whole blood).
T1 sequence (P35354 whole entry): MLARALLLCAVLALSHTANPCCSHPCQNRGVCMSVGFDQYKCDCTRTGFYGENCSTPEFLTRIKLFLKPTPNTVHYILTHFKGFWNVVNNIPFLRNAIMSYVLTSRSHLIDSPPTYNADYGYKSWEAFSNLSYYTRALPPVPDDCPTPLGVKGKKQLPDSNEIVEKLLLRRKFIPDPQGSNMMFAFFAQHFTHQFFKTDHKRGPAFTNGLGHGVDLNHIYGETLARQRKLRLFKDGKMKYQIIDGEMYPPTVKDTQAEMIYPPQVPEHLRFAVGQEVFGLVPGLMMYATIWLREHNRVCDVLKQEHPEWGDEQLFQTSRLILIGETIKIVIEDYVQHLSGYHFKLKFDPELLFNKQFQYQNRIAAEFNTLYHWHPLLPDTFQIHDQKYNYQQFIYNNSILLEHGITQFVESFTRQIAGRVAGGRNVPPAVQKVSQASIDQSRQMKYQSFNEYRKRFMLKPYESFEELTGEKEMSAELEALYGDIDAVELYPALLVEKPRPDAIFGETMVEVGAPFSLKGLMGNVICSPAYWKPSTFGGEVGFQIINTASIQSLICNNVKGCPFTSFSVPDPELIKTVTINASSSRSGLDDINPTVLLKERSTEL

IC50 [nM] | Compound
32.9 | CS(=O)(=O)c1ccc(-c2nc(NC3CC=CCC3)cc(C(F)(F)F)n2)cc1 (centres undefined)
1210 | CS(=O)(=O)c1ccc(-c2nc(NCCCc3cccs3)cc(C(F)(F)F)n2)cc1
3980 | Cn1cccc1CCCNc1cc(C(F)(F)F)nc(-c2ccc(S(C)(=O)=O)cc2)n1
3330 | NS(=O)(=O)c1ccc(-c2nc(NCc3ccccc3)cc(C(F)(F)F)n2)cc1
